Experimental data taken from PubChem BioAssay AID248 (DTP/NCI, 2004).
Where “and” joins values, the source holds several entries; their conditions need not be identical. Equal entries are not always repeated. Toxic doses and inconclusive results are not listed. No stated cut-off is given here; in the data, active means T/C of 150% or more; inactive means T/C below 125%.

Test system: L1210 leukemia ip in BDF1 mice, survival T/C
Experiment: NCI In Vivo Anticancer Drug Screen. Data for tumor model L1210 Leukemia (intraperitoneal) in B6D2F1 (BDF1) mice
Details: endpoint: mean survival time, higher = longer survival
Procedure, shortened: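 Transplantable tumor model; survival measured in treated vs vehicle control mice. Value = treated/control.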

[1] = dose: 100.0 mg/kg/injection, schedule: Q04DX003 (ip), vehicle: saline with Tween-80
[2] = dose: 100.0 mg/kg/injection, schedule: Q01DX009 (ip), vehicle: saline
[3] = dose: 200.0 mg/kg/injection, schedule: Q01DX009 (ip), vehicle: saline
[4] = dose: 400.0 mg/kg/injection, schedule: Q01DX009 (ip), vehicle: saline
[5] = dose: 100.0 mg/kg/injection, schedule: Q01DX009 (ip), vehicle: saline with Tween-80
[6] = dose: 200.0 mg/kg/injection, schedule: Q04DX003 (ip), vehicle: saline with Tween-80
[7] = dose: 400.0 mg/kg/injection, schedule: Q04DX003 (ip), vehicle: saline with Tween-80
[8] = dose: 5.0 mg/kg/injection, schedule: Q01DX001 (ip), vehicle: saline
[9] = dose: 10.0 mg/kg/injection, schedule: Q01DX001 (ip), vehicle: saline
[10] = dose: 25.0 mg/kg/injection, schedule: Q01DX009 (ip), vehicle: saline
[11] = dose: 25.0 mg/kg/injection, schedule: Q04DX003 (ip), vehicle: saline
[12] = dose: 50.0 mg/kg/injection, schedule: Q01DX009 (ip), vehicle: saline
[13] = dose: 50.0 mg/kg/injection, schedule: Q04DX003 (ip), vehicle: saline
[14] = dose: 100.0 mg/kg/injection, schedule: Q01DX001 (ip), vehicle: saline
[15] = dose: 200.0 mg/kg/injection, schedule: Q01DX001 (ip), vehicle: saline
[16] = dose: 400.0 mg/kg/injection, schedule: Q01DX001 (ip), vehicle: saline

Measured: T/C

O=[N+]([O-])c1ccc(CCCl)cc1
inactive: dose: 100.0 mg/kg/injection, schedule: Q04DX003 (ip), vehicle: acetone 102 % of control | dose: 200.0 mg/kg/injection, schedule: Q04DX003 (ip), vehicle: acetone 104 % of control | dose: 400.0 mg/kg/injection, schedule: Q04DX003 (ip), vehicle: acetone 92 % of control

CC[N+](C)(CC)CCCNC(=O)C(c1ccccc1)c1ccccc1
inactive: [1] 100 % of control

O=C(O)C1C2c3ccccc3C(C1C(=O)O)[n+]1ccccc12 (stereo not given)
inactive: [2] 95 % of control | [3] 103 % of control | [4] 94 % of control

COc1ccc(C(Nc2ccc([N+](=O)[O-])cc2)P(=O)(c2ccccc2)c2ccccc2)cc1 (stereo not given)
inactive: [2] 102 % of control | [3] 95 % of control | [4] 106 % of control

[Cl][Fe]([Cl])([Cl])[Cl].c1ccc(-c2cc(-c3ccccc3)[o+]c(-c3ccccc3)c2)cc1
inactive: dose: 25.0 mg/kg/injection, schedule: Q01DX009 (ip), vehicle: saline with Tween-80 87 % of control | dose: 50.0 mg/kg/injection, schedule: Q01DX009 (ip), vehicle: saline with Tween-80 88 % of control | [5] 90 % of control

Cc1cc2c(C)c3ccccc3c(C)c2c2ccccc12
inactive: dose: 50.0 mg/kg/injection, schedule: Q04DX003 (ip), vehicle: Klucel (hydroxypropylcellulose) (HPC) 98 % of control | dose: 100.0 mg/kg/injection, schedule: Q04DX003 (ip), vehicle: Klucel (hydroxypropylcellulose) (HPC) 95 % of control | dose: 200.0 mg/kg/injection, schedule: Q04DX003 (ip), vehicle: Klucel (hydroxypropylcellulose) (HPC) 104 % of control

O=C(O)C1OC1c1ccccc1 (stereo not given)
inactive: [2] 107 % of control | [1] 98 % of control | [3] 109 % of control | [6] 98 % of control | [4] 104 % of control | [7] 100 % of control

O=C1c2ccccc2C[CH]1[Hg][Cl] (stereo not given)
inactive: [8] 103 % of control | [9] 102 % of control

C1CCc2nnnn2CC1
inactive: dose: 6.25 mg/kg/injection, schedule: Q01DX009 (ip), vehicle: saline 111 % of control | dose: 12.5 mg/kg/injection, schedule: Q01DX009 (ip), vehicle: saline 101 % of control and 97 % of control | dose: 12.5 mg/kg/injection, schedule: Q04DX003 (ip), vehicle: saline 103 % of control | [10] 109 % of control and 90 % of control | [11] 101 % of control | [12] 96 % of control | [13] 95 % of control and 106 % of control

NS(=O)(=O)O.[Ni]
inactive: dose: 16.0 mg/kg/injection, schedule: Q04DX003 (ip), vehicle: saline 108 % of control | [11] 92 % of control | dose: 35.0 mg/kg/injection, schedule: Q04DX003 (ip), vehicle: saline 93 % of control | [13] 103 % of control

O=CC(O)C(O)C(O)C(O)COP(=O)(O)O (stereo not given)
inactive: [10] 102 % of control | [12] 93 % of control | [2] 88 % of control

CCCCCCCCCCCCN1CCSCC1
inactive: dose: 25.0 mg/kg/injection, schedule: Q04DX003 (ip), vehicle: saline with Tween-80 95 % of control and 105 % of control | dose: 50.0 mg/kg/injection, schedule: Q04DX003 (ip), vehicle: saline with Tween-80 104 % of control and 90 % of control | dose: 100.0 mg/kg/injection, schedule: Q01DX001 (ip), vehicle: saline with Tween-80 105 % of control and 117 % of control | dose: 100.0 mg/kg/injection, schedule: Q04DX002 (ip), vehicle: saline with Tween-80 95 % of control and 113 % of control | dose: 200.0 mg/kg/injection, schedule: Q01DX001 (ip), vehicle: saline with Tween-80 94 % of control and 117 % of control | dose: 200.0 mg/kg/injection, schedule: Q04DX002 (ip), vehicle: saline with Tween-80 95 % of control and 113 % of control | [6] 93 % of control and 104 % of control and 110 % of control | dose: 400.0 mg/kg/injection, schedule: Q01DX001 (ip), vehicle: saline with Tween-80 97 % of control and 104 % of control | dose: 400.0 mg/kg/injection, schedule: Q04DX002 (ip), vehicle: saline with Tween-80 97 % of control and 98 % of control | [7] 108 % of control and 90 % of control

CNS(=O)(=O)c1ccc(C)cc1
inactive: dose: 100.0 mg/kg/injection, schedule: Q01DX009 (ip), vehicle: Klucel (hydroxypropylcellulose) (HPC) 104 % of control | dose: 100.0 mg/kg/injection, schedule: Q04DX003 (ip), vehicle: saline 102 % of control | dose: 200.0 mg/kg/injection, schedule: Q01DX009 (ip), vehicle: Klucel (hydroxypropylcellulose) (HPC) 108 % of control | dose: 200.0 mg/kg/injection, schedule: Q04DX003 (ip), vehicle: saline 100 % of control | dose: 400.0 mg/kg/injection, schedule: Q01DX009 (ip), vehicle: Klucel (hydroxypropylcellulose) (HPC) 108 % of control | dose: 400.0 mg/kg/injection, schedule: Q04DX003 (ip), vehicle: saline 122 % of control

CCC(CC)COC(=O)CI
inactive: [8] 100 % of control | [9] 100 % of control | dose: 20.0 mg/kg/injection, schedule: Q01DX001 (ip), vehicle: saline 100 % of control | dose: 40.0 mg/kg/injection, schedule: Q01DX001 (ip), vehicle: saline 100 % of control | dose: 80.0 mg/kg/injection, schedule: Q01DX001 (ip), vehicle: saline 100 % of control

CC1C(=O)OC2C1CCC1(C)C3(C)C(=O)C=CC213 (stereo not given)
inactive: dose: 75.0 mg/kg/injection, schedule: Q01DX001 (ip), vehicle: saline 97 % of control | dose: 150.0 mg/kg/injection, schedule: Q01DX001 (ip), vehicle: saline 106 % of control | dose: 300.0 mg/kg/injection, schedule: Q01DX001 (ip), vehicle: saline 95 % of control

O=[N+]([O-])c1cccc(/C=N/N2CCN(/N=C/c3cccc([N+](=O)[O-])c3)CC2)c1
inactive: [14] 102 % of control | [15] 92 % of control | [16] 96 % of control

CCOC(=O)NS(=O)(=O)[N+](CC)(CC)CC
inactive: dose: 100.0 mg/kg/injection, schedule: Q01DX001 (ip), vehicle: carboxymethylcellulose (CMC) 97 % of control | dose: 200.0 mg/kg/injection, schedule: Q01DX001 (ip), vehicle: carboxymethylcellulose (CMC) 97 % of control | dose: 400.0 mg/kg/injection, schedule: Q01DX001 (ip), vehicle: carboxymethylcellulose (CMC) 100 % of control

O=c1[nH]cnc2nc(SCc3ccccc3NCBr)[nH]c12
inactive: dose: 31.3 mg/kg/injection, schedule: Q04DX002 (ip), vehicle: Klucel (hydroxypropylcellulose) (HPC) 91 % of control | dose: 62.5 mg/kg/injection, schedule: Q04DX002 (ip), vehicle: Klucel (hydroxypropylcellulose) (HPC) 91 % of control | dose: 125.0 mg/kg/injection, schedule: Q04DX002 (ip), vehicle: Klucel (hydroxypropylcellulose) (HPC) 88 % of control

Clc1ccccc1OCC1CO1 (stereo not given)
inactive: [5] 93 % of control | [1] 98 % of control | dose: 200.0 mg/kg/injection, schedule: Q01DX009 (ip), vehicle: saline with Tween-80 100 % of control | [6] 98 % of control | dose: 400.0 mg/kg/injection, schedule: Q01DX009 (ip), vehicle: saline with Tween-80 97 % of control | [7] 103 % of control

C=CCc1ccc(OC(C)=O)c(OC)c1
inactive: [14] 96 % of control | [15] 98 % of control | [16] 108 % of control

CC(=O)Nc1nc(C=O)cc(=O)[nH]1
inactive: dose: 100.0 mg/kg/injection, schedule: Q01DX001 (ip), vehicle: Klucel (hydroxypropylcellulose) (HPC) 100 % of control | dose: 100.0 mg/kg/injection, schedule: Q01DX001 (ip), vehicle: other 86 % of control | dose: 200.0 mg/kg/injection, schedule: Q01DX001 (ip), vehicle: Klucel (hydroxypropylcellulose) (HPC) 104 % of control | dose: 400.0 mg/kg/injection, schedule: Q01DX001 (ip), vehicle: Klucel (hydroxypropylcellulose) (HPC) 103 % of control | dose: 400.0 mg/kg/injection, schedule: Q01DX001 (ip), vehicle: other 91 % of control
